# Results as given in US8071540B2, “Virus derived antimicrobial peptides” (priority 2007, dated 2011).
# Where no end group is shown, it is not given here.
# System: Burkholderia cepacia
# Type: cell-based
# Settings: 25 μM peptide, organisms surviving, FIG. 8
sequence,measurement,value
"RWIRVVQRWCRAIRHIWRRIRQGLRRWLRVV [WLSA-5, RWIRVVQRWCRAIRHIWRRIRQGLRRWLRVV]",killing of B. cepacia genomovars compared with LL37,equal to or better than LL-37 at killing all bacterial strains
